Measurements as given in US20070265201A1, “INHIBITORS OF IN[…] TRA[…] FROM HCMV PROTEIN IE2” (priority 2005, published 2007).
“Also recorded” adds a separate entry of the source. Ends that are not written are not given here.

Columns and labels:
IL-1β promoter = IL-1β promoter (HT) luciferase gene reporter assay, transient transfection of HeLa-S3 cells with Spi-1 and C/EBPβ expression vectors; type: cell-based, human; conditions: for inhibition of cooperative transactivation of the IL-1β promoter: HT reporter with Spi-1 and C/EBP, absence of full-length IE2, titrated fragment vector, FIG. 2A
Text: FIGS. 1A-1D depict cooperative transactivation of the IL-1B promoter by Spi-1, C/EBPβ and IE2. FIG. 1A is a schematic of the IL-1B promoter showing two composite Spi-1-C/EBPβ binding sites in proximity to the transcription start site. The full-length promoter (HT) was spliced into a vector containing the gene reporter firefly luciferase and used in transient transfection assays in HeLa-S3 cells. FIG. 1B depicts dose-response of HT reporter to titrated Spi-1 expression vector and a fixed amount of cotransfected C/EBPβ expression vector. FIG. 1C depicts dose-response of HT reporter to titrated C/EBPβ expression vector and a fixed amount of Spi-1 expression vector. FIG. 1D depicts functional cooperativity with IE2. The HT reporter was contransfected with titrated Spi-1 expression vector (open bars) or fixed amount of C/EBPβ expression vector (checkerboard bars), or both C/EBPβ and IE2 expression vectors (hatched bars).
The data shown here are pooled from three independent experiments. […] The indicated transfection groups were con-transfected with titrated amounts of IE2 291-364 or 291-343 expression vectors. […] The experiment described by FIG. 2B is similar to that described by FIG. 2A except that wild type IE2 was also added to the indicated transfection groups. These are pooled data from three independent experiments.
• Cell Culture. HeLa cells (Strain S3) were obtained by ATCC and cultured per their recommendations. Briefly, the cells were grown in Dulbecco modified Eagle medium (DMEM) containing 10% FBS and 0.5% penicillin-streptomycin. Every three days cells were split 1:10 using Trypsin (0.25%) EDTA (0.1%) (Cellgro) to detach the cells. • Reporter Constructs and Expression Vectors. The human IL1B promoter regions (−131+12 and −59/+12 and its mutants (FIG. 1A) were generated by polymerase chain reaction (PCR) and inserted into pGL3-Basic vector (Promega) at Mlu I and BgI II or Hind III sites to construct promoter-luciferase reporter plasmids. The HCMV IE expression vectors pEQ273 and pEQ326 contain the genomic HCMV IE DNA inserted into pGEM1 vector. The plasmids expressing full-length NFIL6 and a truncated version with an internal deletion between the two Spl I restriction sites were constructed by inserting the NFIL6 cDNAs into expression vectors pcDNA3.1 or pcDNA1 (Invitrogen) (Tsukada, J., K. Saito, et al. (1994) Mol Cell Biol 14(11): 7285-97). […] Twenty-four or forty-eight hours after transfection, the activities of luciferase and β-galactosidae activity were determined (using reagents from Promega) to measure promoter activity and allow normalization of luciferase activity in each experiment, respectively. […]

C/EBPβ bZIP domain = biological target: T1, C/EBPβ bZIP domain (Homo sapiens, UniProt P17676); test: GST fusion pull-down assay with radiolabeled C/EBPβ bZIP domain probe; type: binding; conditions: autoradiography, FIG. 5
T1 construct: PCR-amplified fragment of NFIL6 encoding amino acids 269-345 into pcDNA3.1; made in house; host or cells: in vitro translation, rabbit reticulocyte lysate (TNT T7 Quick Coupled, Promega), 35S-methionine label
Method: (§1) Interaction of the indicated probes is retained to the control peptides IE2 291-343 and IE2 291-364.
(§2) • Cell Culture. HeLa cells (Strain S3) were obtained by ATCC and cultured per their recommendations. Briefly, the cells were grown in Dulbecco modified Eagle medium (DMEM) containing 10% FBS and 0.5% penicillin-streptomycin. Every three days cells were split 1:10 using Trypsin (0.25%) EDTA (0.1%) (Cellgro) to detach the cells. • Reporter Constructs and Expression Vectors. The human IL1B promoter regions (−131+12 and −59/+12 and its mutants (FIG. 1A) were generated by polymerase chain reaction (PCR) and inserted into pGL3-Basic vector (Promega) at Mlu I and BgI II or Hind III sites to construct promoter-luciferase reporter plasmids. The HCMV IE expression vectors pEQ273 and pEQ326 contain the genomic HCMV IE DNA inserted into pGEM1 vector. The plasmids expressing full-length NFIL6 and a truncated version with an internal deletion between the two Spl I restriction sites were constructed by inserting the NFIL6 cDNAs into expression vectors pcDNA3.1 or pcDNA1 (Invitrogen) (Tsukada, J., K. Saito, et al. (1994) Mol Cell Biol 14(11): 7285-97). The expression vector containing the bZIP region of NFIL6 was constructed by inserting a PCR-amplified fragment of NFIL6 encoding amino acids 269-345 into pcDNA3.1 (Yang, Z., N. Wara-Aswapati, et al. (2000) J Biol Chem 275(28): 21272-7). • Transfections and Reporter Gene Assays. HeLa (S3) cells were transfected with expression vectors and luciferase reporter plasmids using Effectene reagents (Qiagen Inc.). Cells were seeded into 24-well plates 24 hours before transfection. […] Expression from these vectors was confirmed by western blotting. Twenty-four or forty-eight hours after transfection, the activities of luciferase and β-galactosidae activity were determined (using reagents from Promega) to measure promoter activity and allow normalization of luciferase activity in each experiment, respectively. […] Gels were stained with SimplyBlue Safestain (Invitrogen) for protein determination and analyzed for binding using autoradiography. […]

IE2 = biological target: T2, IE2 (Human cytomegalovirus, UniProt P19893); test: GST fusion pull-down assay with radiolabeled IE2 probe; type: binding; conditions: autoradiography, FIG. 5
T2 construct: made in house; host or cells: in vitro translation, rabbit reticulocyte lysate (TNT T7 Quick Coupled, Promega), 35S-methionine label
Method: as §1, §2

Spi-1 ETS domain = biological target: T3, Spi-1 ETS domain (Homo sapiens, UniProt P17947); test: GST fusion pull-down assay with radiolabeled Spi-1 ETS domain probe; type: binding; conditions: autoradiography, FIG. 5
T3 construct: made in house; host or cells: in vitro translation, rabbit reticulocyte lysate (TNT T7 Quick Coupled, Promega), 35S-methionine label
Method: as §1, §2

C/EBPβ = test: Specificity control: C/EBPβ expression by western blot of transfected HeLa-S3 lysates; type: cell-based; conditions: HeLa-S3 cell lysates, FIG. 4C
Method: (§3) FIGS. 4A-4D. […] FIG. 4D is another specificity control showing that a control GFP expression vector was not affected by either IE2 291-343 or IE2 291-364. HeLa-S3 cells were transfected with both a GFP expression vector and cotransfected with either E2 291-343 or IE 291-364 expression vectors and GFP expression analyzed 24 hours later by a fluorescence activated cell sorter.
(§4) Because the IE2 291-364 region was previously mapped as one of three TBP binding sites on IE2, it was possible that the inhibitory function was due to interaction with TBP. To exclude this possibility, the expression of two other genes that contain TATA boxes in their promoters were investigated. First, an observed the expression of C/EBPβ from the expression vector by western blot (FIG. 4C) was conducted. […] Second, His-tagged inhibitors were cotransfected with ev GFP and the geometric mean brightness of transfected cells measured by flow cytometry (FIG. 4D). […] It is believed that the basis for the interaction is localized to residues 315-328 of the IE2 molecule because a variant of IE2 291-364 missing the 315-328 region (delA) lacks binding to Spi-1 ETS domain in a GST fusion pull-down assay (FIG. 5).

GFP expression vector = test: Specificity control: expression of control GFP vector by flow cytometry in HeLa-S3 cells; type: cell-based; conditions: HeLa-S3, cotransfection, 24 hours, FIG. 4D
Method: as §3, §4

IL-1β promoter reporter = test: Full-length IL-1β regulatory region luciferase reporter in LPS-stimulated RAW264.7 monocytic cells; type: cell-based
Text: FIG. 3 depicts that IE2 291-364 fragment inhibits full-length IL-1β reporter in the monocytic cell line RAW264.7. A luciferase gene reporter was made by splicing the native IL-1β upstream fragment (XT), which contains the enhancer through promoter sequences, upstream of the luciferase gene. This was cotransfected (in titrated doses) with pCDNA 3.1/V5-His empty vector (control) or pCDNA 3.1/V5-His IE2 291-364 by calcium phosphate precipitation into RAW 264.7 cells. To activate the reporter, cells were stimulated with LPS.
FIG. 6 depicts increasing amounts of vector expressing either IE2 291-364Δ315-328 or IE2 291-364 transfected into RAW cells with full length IL-1β regulatory protein as a luciferase reporter. After transient transfection by CaPO4, RAW cell lysates were used for measurement by luminometry and results normalized to β-galactosidase activity introduced by a co-transfected β-galactosidase expression vector to control for transfection efficiency. Values for IE2 291-364Δ315-328 are reported as percentages of relative luciferase activity compared to the wild-type fragment 315-264, as shown.
To further verify the effect of IE2 291-364, a test was conducted in the RAW 264.7 cell line. […] When the RAW 264.7 cell line was treated with the bacterial cell wall product LPS, it produced IL-1β similar to what normal monocytes would do. The IE2-291-364 peptide inhibited IL-1β promoter reporter by about 50% in this system (FIG. 3).
In order to more rigorously test the inhibitory capabilities of the IE2 peptides on IL1B gene expression, a complete monocyte-specific 3.8 kbp regulatory region of the IL1B gene containing both the LPS-responsive enhancer and the cell-type specific Spi-1-dependent promoter (Shirakawa, F., K. Saito, et al. (1993). Mol Cell Biol 13(3): 1332-44) was transfected as a luciferase reporter into LPS-treated RAW264.7 monocyte cells.

T2 sequence (P19893 whole entry, the tested form may be a part): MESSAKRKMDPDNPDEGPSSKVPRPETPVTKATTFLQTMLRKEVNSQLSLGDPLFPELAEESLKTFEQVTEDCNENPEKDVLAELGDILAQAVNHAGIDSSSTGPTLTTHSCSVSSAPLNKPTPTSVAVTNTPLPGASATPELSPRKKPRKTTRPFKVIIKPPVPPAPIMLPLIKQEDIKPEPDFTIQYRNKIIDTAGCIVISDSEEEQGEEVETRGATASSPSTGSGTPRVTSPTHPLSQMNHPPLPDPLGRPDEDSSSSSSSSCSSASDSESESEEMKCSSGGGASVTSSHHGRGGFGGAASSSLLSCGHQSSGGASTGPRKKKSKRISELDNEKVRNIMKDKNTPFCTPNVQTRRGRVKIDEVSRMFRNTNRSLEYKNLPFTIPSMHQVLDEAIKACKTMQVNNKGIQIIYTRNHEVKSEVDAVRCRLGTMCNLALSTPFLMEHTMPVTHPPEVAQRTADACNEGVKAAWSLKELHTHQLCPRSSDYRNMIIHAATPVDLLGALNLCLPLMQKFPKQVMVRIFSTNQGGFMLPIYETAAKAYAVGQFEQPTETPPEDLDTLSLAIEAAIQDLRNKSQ
T1 sequence (P17676 269-345): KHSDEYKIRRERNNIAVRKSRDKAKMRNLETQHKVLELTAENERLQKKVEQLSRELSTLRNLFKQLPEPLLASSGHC

Substance	interaction with C/EBPβ bZIP domain probe (C/EBPβ bZIP domain)	interaction with IE2 probe (IE2)	interaction with Spi-1 ETS domain probe (Spi-1 ETS domain)	inhibition of cooperative transactivation of the IL-1β promoter (IL-1β promoter)	effect on GFP expression from control GFP vector (GFP expression vector)	further results
full length wild-type IE2: CMV encoded transactivator Immediate Early 2 protein, full length	–	–	–	–	–	increase of IL-1β promoter reporter activity (IL-1β promoter; full length wild-type IE2 added to Spi-1 and C/EBPβ transfection, HeLa-S3, FIG. 1D): 4-10 fold
GFP-IE2 291-343 (SSHHGRGGFGGAASSSLLSCGHQSSGGASTGPRKKKSKRISELDNEKVRNIMK; also: GFP fusion)	–	–	–	–	–	inhibition of IL-1β promoter (HT reporter) activity by GFP fusion product (IL-1β promoter; Spi-1 and C/EBPβ transactivation, GFP-expressing cells purified by FACS, FIG. 4B): inhibition of IL-1β promoter activity
delA (SSHHGRGGFGGAASSSLLSCGHQSRISELDNEKVRNIMKDKNTPFCTPNVQTRRGRVKID; not fully specified; cysteine pairing not given here) [reference compound]	loss of interaction	loss of interaction	lacks binding; also recorded: loss of interaction	–	–	–
IE2 291-364: hCMV IE2 protein amino acid residues 291-364, expressed from vector (His tag or GST fusion)	retained	retained	retained	inhibited	not affected	effect on expression of C/EBPβ protein (western blot) (C/EBPβ): does not inhibit; dose dependence of inhibition of 3.8 kbp IL1B regulatory region reporter activity (IL-1β promoter reporter; LPS-treated RAW264.7, His-tagged expression vector, FIG. 6): dose-dependent inhibition; inhibition of full-length IL-1β reporter (XT) (IL-1β promoter reporter; RAW264.7, LPS stimulated, cotransfected pCDNA 3.1/V5-His IE2 291-364, FIG. 3): inhibits; inhibition of IL-1β promoter reporter (IL-1β promoter reporter; RAW 264.7 cells treated with LPS, FIG. 3): about 50%
IE2 291-343: hCMV IE2 protein amino acid residues 291-343	retained	retained	retained	inhibited	not affected	–
